Here are results for 13 compounds from PubChem BioAssay (NCI).

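Exposure lasted 48 hours, with cells grown in 96-well plates and compounds tested at five concentrations. The concentration for 50% growth inhibition is given as GI50. TGI marks complete inhibition of growth.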 Where only a bound is given, the exact number is not on record here.

Among the test systems are 786-0 renal; A498 renal; ACHN renal; LOX IMVI melanoma; MOLT-4 leukemia; NCI-H522 lung; UACC-62 melanoma; RXF 393 renal; U251 CNS.
What all share (assay): growth of human tumour cells (NCI), 48 h

As to `Cc1cc(O)c2c(c1)OC1(C)CCC3C(C)(C)CCCC34COC2C14` (stereo not drawn), the TGI with 786-0 renal came out at 30.7 µM; in the test with A498 renal it was 26 µM; in the test with ACHN renal it was 25.8 µM; in the test with LOX IMVI melanoma, 27.3 µM; in the test on MOLT-4 leukemia, 27.4 µM; in the test with NCI-H522 lung it was 34.6 µM. In the test with UACC-62 melanoma, the TGI came to 34.8 µM.

For `O=C(Nc1ccccc1)N1C(c2ccccc2)=N[C@@H](c2ccccc2)[C@@H]1c1ccccc1`, the TGI with 786-0 renal worked out at 34.7 µM; in the test on A498 renal it was 35.8 µM; in the test on ACHN renal, 31.4 µM; in the test on LOX IMVI melanoma, 28.2 µM; in the test with MOLT-4 leukemia, 44.5 µM; in the test with RXF 393 renal it was 34.2 µM. This compound also showed a TGI in the test on UACC-62 melanoma of 34.7 µM.

For the compound `C/C(=C\c1ccccc1)C(=O)c1c(C)cc(C)cc1C`, the TGI in the test on 786-0 renal, with ACHN renal, with MOLT-4 leukemia, with NCI-H522 lung, in the test with RXF 393 renal and in the test on U251 CNS was over 100 µM in each case. Moreover, the TGI in the test on UACC-62 melanoma was over 100 µM.

Consider `C[C@]12CC[C@H](OC(=O)Nc3ccccc3)CC1=CC[C@@H]1C2CC[C@]2(C)/C(=N/OC(=O)Nc3ccccc3)CCC12` (stereo partly drawn), for which the TGI with 786-0 renal, with A498 renal, in the test with ACHN renal, with LOX IMVI melanoma, with MOLT-4 leukemia and in the test on U251 CNS was over 100 µM in each case. This compound also showed a TGI with UACC-62 melanoma of over 100 µM.

As for `O=C(Cc1nc2ccccc2s1)C(=O)Nc1cccc(C(F)(F)F)c1`, the TGI in the test with 786-0 renal, in the test on A498 renal, in the test with ACHN renal, in the test on MOLT-4 leukemia, with NCI-H522 lung and with RXF 393 renal was over 100 µM in each case. The TGI in the test with U251 CNS and with UACC-62 melanoma was over 100 µM each time.

With `COC(OC)c1cccnc1C`, the TGI in the test on 786-0 renal, with ACHN renal, with LOX IMVI melanoma, in the test with MOLT-4 leukemia, in the test with NCI-H522 lung and with RXF 393 renal was over 100 µM each time. In addition, the TGI in the test with U251 CNS and in the test with UACC-62 melanoma was over 100 µM each time.

`c1ccc(N2CCN(CCN3CCc4c([nH]c5ccccc45)C3c3cccnc3)CC2)cc1` (stereo not drawn): the TGI with 786-0 renal, in the test with A498 renal, in the test on ACHN renal, in the test on MOLT-4 leukemia, with NCI-H522 lung and in the test on U251 CNS was over 100 µM throughout. For the same compound, the TGI in the test with UACC-62 melanoma was over 100 µM.

Take `O=C(O)C1CC2C=CCC(C2)C1` (stereo not drawn): the TGI in the test on 786-0 renal, in the test on ACHN renal, with LOX IMVI melanoma, with MOLT-4 leukemia, with NCI-H522 lung and in the test on RXF 393 renal was over 100 µM throughout. The TGI in the test with U251 CNS and with UACC-62 melanoma was over 100 µM each time.

For `N.N.N.N.O=S([O-])[O-].[Co+3].[N-]=[N+]=[N-]`, the GI50 was over 100 µM in the test with 786-0 renal; over 100 µM in the test with A498 renal; over 100 µM in the test on ACHN renal; over 100 µM with LOX IMVI melanoma; over 100 µM in the test on MOLT-4 leukemia; 42.3 µM with NCI-H522 lung. Besides, the GI50 in the test on U251 CNS and with UACC-62 melanoma was over 100 µM in each case. For the same compound, the TGI with 786-0 renal, in the test with A498 renal, with ACHN renal, with LOX IMVI melanoma, with MOLT-4 leukemia and with NCI-H522 lung was over 100 µM in each case. In addition, the TGI in the test with U251 CNS and in the test with UACC-62 melanoma was over 100 µM each time.

In the case of `O=C(NCCCN1CCN(CCCNC(=O)Nc2cc(Cl)ccc2Cl)CC1)Nc1cc(Cl)ccc1Cl`, the TGI with 786-0 renal, in the test with ACHN renal, in the test with LOX IMVI melanoma, in the test on MOLT-4 leukemia, in the test on NCI-H522 lung and in the test with RXF 393 renal was over 100 µM each time. In addition, the TGI with U251 CNS and with UACC-62 melanoma was over 100 µM throughout.

`C=C(c1ccccc1)c1cc2c(=O)[nH]ccc2n1C`: the TGI with 786-0 renal is over 100 µM; with ACHN renal it was over 100 µM; in the test on LOX IMVI melanoma, over 100 µM; with MOLT-4 leukemia, over 100 µM; in the test on NCI-H522 lung, 54.9 µM; with RXF 393 renal, 86.1 µM. In the test on UACC-62 melanoma, the TGI is over 100 µM.

In the case of `Nc1ccc(C(=O)N/C(=C\c2ccc3c(c2)OCO3)c2nc3ccccc3s2)cc1`, the TGI was 23.7 µM in the test with 786-0 renal; 27.2 µM in the test with ACHN renal; 28.5 µM in the test on NCI-H522 lung; 27.9 µM with RXF 393 renal; 26.4 µM in the test with U251 CNS; 33.2 µM in the test on UACC-62 melanoma.

As to `CC(NC1CCCC[C@@H]1O)c1ccccc1` (stereo partly drawn), the TGI with 786-0 renal, in the test on ACHN renal, in the test with LOX IMVI melanoma, in the test with MOLT-4 leukemia, with RXF 393 renal and with U251 CNS was over 100 µM throughout. This compound had a TGI with UACC-62 melanoma of over 100 µM.
